One series concerns the target hCHT (human chitinase) (Homo sapiens, UniProt Q13231). As to the kind of experiment: hCHT (human chitinase) inhibition. The class given is biochemical.
A further series concerns the target AfChiA1 (Aspergillus fumigatus, UniProt Q873Y0). As to the kind of experiment: biochemical. In kind it is biochemical. Conditions: for inhibition at 1000 µM: read-out: % inhibition at 1 mM.
For another series, the target named is hevamine. Further details: method as in PMID 10922481. The note with it: read-out: Ki against hevamine; cited from earlier work.
Where [1] appears, read: human chitinase, read-out: hCHT IC50.
The mark [2] stands for this setting: Table 3, 4-parameter logistic fit.

The text below walks through data of paper PMC2997425, “Acetazolamide-based fungal chitinase inhibitors” (Bioorganic & Medicinal Chemistry, 2010).

Structures can show the parent of a compound that is named as a salt. Where two headings read alike, the source gives them in different places. Some results are limits rather than exact numbers.

Sequence of AfChiA1 (Q873Y0 29-335): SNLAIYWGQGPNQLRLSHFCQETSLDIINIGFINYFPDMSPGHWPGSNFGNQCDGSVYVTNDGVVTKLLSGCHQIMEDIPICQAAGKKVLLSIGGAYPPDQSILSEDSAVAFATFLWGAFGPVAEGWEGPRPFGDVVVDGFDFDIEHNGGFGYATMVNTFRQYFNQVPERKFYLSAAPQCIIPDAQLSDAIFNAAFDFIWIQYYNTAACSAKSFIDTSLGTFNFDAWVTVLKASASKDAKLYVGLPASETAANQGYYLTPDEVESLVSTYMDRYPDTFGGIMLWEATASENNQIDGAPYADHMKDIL
Sequence of hCHT (human chitinase) (Q13231 22-466): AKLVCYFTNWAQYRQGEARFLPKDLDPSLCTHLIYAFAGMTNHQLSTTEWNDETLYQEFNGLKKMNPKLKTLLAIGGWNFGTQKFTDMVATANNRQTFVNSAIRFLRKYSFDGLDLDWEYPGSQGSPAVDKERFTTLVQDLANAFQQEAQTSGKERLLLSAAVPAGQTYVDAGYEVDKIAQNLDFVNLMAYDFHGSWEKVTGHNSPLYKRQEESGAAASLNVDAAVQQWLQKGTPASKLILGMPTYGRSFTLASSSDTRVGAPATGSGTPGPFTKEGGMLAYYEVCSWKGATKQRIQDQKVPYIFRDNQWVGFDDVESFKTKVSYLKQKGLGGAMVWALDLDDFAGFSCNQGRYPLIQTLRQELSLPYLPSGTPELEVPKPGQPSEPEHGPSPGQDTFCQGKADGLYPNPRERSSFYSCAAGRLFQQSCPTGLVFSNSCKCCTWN

What is called IC50 is the point on the concentration scale where inhibition reaches its midpoint. On hCHT (human chitinase), `c1coc(CNc2ncnc3[nH]cnc23)c1` [Kinetin, reference compound] returned an IC50 of more than 1000 µM. On AfChiA1, the “inhibitory activity against AfChiA1 (in words)” value (“inhibitory activity” for short) was “failed to show any discernable effect”.
Broadly, the Hill slope is a measure of the steepness of the concentration-response curve. On to `Cn1c(=O)c2[nH]c(Cl)nc2n(C)c1=O` [8-Chloro-theophylline, 8-chlorotheophylline, reference compound], for which the IC50 at hCHT (human chitinase) (setting [1]) is more than 2500 µM. Also, on AfChiA1, the Hill slope was determined as 1.0.
Consider `CC(=O)Nc1nncs1` [Compound 7, 5-acetamido-1,3,4-thiadiazole], for which, on AfChiA1, the “inhibitory activity” value is given as “abrogate activity”.
In the case of `CC(=O)Nc1nnc(S)s1` [Compound 9, 5-Acetamido-2-thiol-1,3,4-thiadiazole], on AfChiA1 (setting [2]), the Hill slope was 1.1.
By inhibition is commonly meant the drop in the measured response relative to a control, in per cent. For the molecule `COc1cccc(CSc2nnc(NC(C)=O)s2)c1` [Compound 14], the inhibition at 1000 µM at AfChiA1 was 38%.
On to `NS(=O)(=O)c1nnc(NC(=O)c2ccccc2)s1` [Compound 5, 5-benzylamido-2-sulfamoyl-1,3,4-thiadiazole], for which the Hill slope on AfChiA1 (setting [2]) was found to be 0.5. Also, the inhibition at 1000 µM on AfChiA1 came to 51%.
As to `CCC(=O)Nc1nnc(S(N)(=O)=O)s1` [Compound 2, 5-propylamido-2-sulfamoyl-1,3,4-thiadiazole], on AfChiA1, the Hill slope turned out to be 0.71, the “inhibitory activity” value is given as “reduction in activity” and the inhibition at 1000 µM worked out at 76%.
What is called Ki is a measure of affinity in units of concentration, obtained from inhibition or displacement. Consider `CC(=O)N[C@H]1[C@H](O[C@H]2[C@@H](O)[C@@H](NC(C)=O)[C@H](O[C@H]3[C@H](O)[C@H]4N=C(N(C)C)O[C@H]4[C@@H]3CO)O[C@@H]2CO)O[C@H](CO)[C@@H](O)[C@H]1O` [Allosamidin, reference compound], for which the Hill slope at AfChiA1 (Fig. 1, triplicate, four-parameter logistic fit) amounted to 0.9. Also, the inhibition constant Ki at hevamine is 3.1 µM.
For the molecule `O=C(CCl)Nc1nnc(C(F)(F)F)s1` [Compound 21], the “inhibitory activity” value on AfChiA1 is given as “reduction in activity”.
As for `CC(=O)Nc1nnc(Br)s1` [Compound 12], on AfChiA1 (setting [2]), the Hill slope stood at 0.7.
As a reminder, the melting point is the temperature of the solid-liquid transition. With `CC(=O)Nc1nncs1` (as salt: salt) [Compound 7, 5-acetamido-1,3,4-thiadiazole], the melting point lay in the range of 276 to 277 °C.
`CC(C)Cc1nnc(NC(=O)CCl)s1` [Compound 20]: at AfChiA1, the “inhibitory activity” value is listed as “reduction in activity”.
As for `CC(=O)Nc1nnc(C)s1` [Compound 8], the “inhibitory activity” value at AfChiA1 is on record as “abrogate activity”.
At AfChiA1 (setting [2]), `CC(=O)Nc1nnc(C(F)(F)F)s1` [Compound 11] came in with a Hill slope of 1.1.
For `O=C(Nc1nnc(-c2ccccc2)s1)C(F)(F)F` [Compound 15], at AfChiA1, the Hill slope is listed as 1.2 and the inhibition at 1000 µM was determined as 85%.
For `CC(=O)Nc1nnc(S(N)(=O)=O)s1` [Compound 1, acetazolamide], at hCHT (human chitinase) (setting [1]), the IC50 was more than 1000 µM.
Consider `Nc1nnc(S(N)(=O)=O)s1` [Compound 6, 5-amino-2-sulfamoyl-1,3,4-thiadiazole monohydrochloride], for which the “inhibitory activity” value on AfChiA1 was “abolishes inhibitory activity”.
In the case of `O=C(Nc1nnc(N2CCN(c3cccc(Cl)c3)CC2)s1)C(F)(F)F` [Compound 17], on AfChiA1, the inhibition at 1000 µM amounted to 30%.
`CC(=O)Nc1nnc(-c2ccccc2)s1` [Compound 10] gave a Hill slope at AfChiA1 (setting [2]) of 0.5.
